Assay type in all cases: cell-based
Test [1] deals with Acinetobacter baumanaii NCTC 19606. Kind of test: multi-point inoculation onto Columbia agar plates. As to conditions: substrate 300 mg/L, FAC 500 mg/L, 18 h at 37° C. in air. Here is the method:
(§1) The specificity of action of both DHN-β-D-glucuronide (2) and of catechol-β-D-glucuronide (1), as well as their 6′-methyl esters (4 and 6), was first established using multi-point inoculation of 20 different microbial strains onto Columbia agar plates. The strains chosen represented species commonly encountered in diagnostic microbiology. The substrates were incorporated into the agar at a concentration of 300 mg/L with an iron salt, ferric ammonium citrate, (hereinafter known as FAC) at 500 mg/L. The plates were incubated for 18 h at 37° C. in air.

Test [2] deals with Bacillus subtilis NCTC 9372. Kind of test: multi-point inoculation onto Columbia agar plates. As to conditions: substrate 300 mg/L, FAC 500 mg/L, 18 h at 37° C. in air. Here is the method:
as §1

Test [3] deals with Burkholderia cepacia NCTC 10931. Kind of test: multi-point inoculation onto Columbia agar plates. As to conditions: substrate 300 mg/L, FAC 500 mg/L, 18 h at 37° C. in air. Here is the method:
as §1

Test [4] relates to Candida albicans ATCC 90028. Kind of test: multi-point inoculation onto Columbia agar plates. The note with it: substrate 300 mg/L, FAC 500 mg/L, 18 h at 37° C. in air. As for the experimental part:
as §1

Test [5] concerns Candida glabrata NCPF 3943. Kind of test: multi-point inoculation onto Columbia agar plates. As to conditions: substrate 300 mg/L, FAC 500 mg/L, 18 h at 37° C. in air. Here is the method:
as §1

Test [6] has as its system Enterobacter cloacae NCTC 11936. Kind of test: multi-point inoculation onto Columbia agar plates. The note with it: substrate 300 mg/L, FAC 500 mg/L, 18 h at 37° C. in air. Here is the method: as §1
Test [7] deals with Enterococcus faecalis NCTC 775. Nature of the test: multi-point inoculation onto Columbia agar plates. As to conditions: substrate 300 mg/L, FAC 500 mg/L, 18 h at 37° C. in air. Here is the method:
as §1

In test [8] the test system is Enterococcus faecium NCTC 7171. Nature of the test: multi-point inoculation onto Columbia agar plates. As to conditions: substrate 300 mg/L, FAC 500 mg/L, 18 h at 37° C. in air. As for the experimental part:
as §1

Test [9] has as its system Escherichia coli NCTC 10418. Nature of the test: multi-point inoculation onto Columbia agar plates. The note with it: substrate 300 mg/L, FAC 500 mg/L, 18 h at 37° C. in air. Here is the method: as §1
For test [10], the system named is Klebsiella pneumoniae NCTC 9528. Kind of test: multi-point inoculation onto Columbia agar plates. The note with it: substrate 300 mg/L, FAC 500 mg/L, 18 h at 37° C. in air. Here is the method:
as §1

Test [11] has as its system Listeria monocytogenes NCTC 11994. Kind of test: multi-point inoculation onto Columbia agar plates. As to conditions: substrate 300 mg/L, FAC 500 mg/L, 18 h at 37° C. in air. As for the experimental part:
as §1

Test [12] has as its system Providencia rettgeri NCTC 7475. Kind of test: multi-point inoculation onto Columbia agar plates. As to conditions: substrate 300 mg/L, FAC 500 mg/L, 18 h at 37° C. in air. As for the experimental part:
as §1

The test system of test [13] is Pseudomonas aeruginosa NCTC 10662. Nature of the test: multi-point inoculation onto Columbia agar plates. The note with it: substrate 300 mg/L, FAC 500 mg/L, 18 h at 37° C. in air. Here is the method:
as §1

In test [14] the test system is Salmonella typhimurium NCTC 74. Nature of the test: multi-point inoculation onto Columbia agar plates. The note with it: substrate 300 mg/L, FAC 500 mg/L, 18 h at 37° C. in air. Here is the method:
as §1

Test [15] deals with Serratia marcescens NCTC 10211. Nature of the test: multi-point inoculation onto Columbia agar plates. As to conditions: substrate 300 mg/L, FAC 500 mg/L, 18 h at 37° C. in air. As for the experimental part: as §1
For test [16], the system named is Staphylococcus aureus (MRSA) NCTC 11939. Kind of test: multi-point inoculation onto Columbia agar plates. As to conditions: substrate 300 mg/L, FAC 500 mg/L, 18 h at 37° C. in air. As for the experimental part:
as §1

Test [17] relates to Staphylococcus aureus NCTC 6571. Nature of the test: multi-point inoculation onto Columbia agar plates. The note with it: substrate 300 mg/L, FAC 500 mg/L, 18 h at 37° C. in air. As for the experimental part:
as §1

In test [18] the test system is Staphylococcus epidermidis NCTC 11047. Nature of the test: multi-point inoculation onto Columbia agar plates. As to conditions: substrate 300 mg/L, FAC 500 mg/L, 18 h at 37° C. in air. Here is the method:
as §1

Test [19] has as its system Streptococcus pyogenes NCTC 8306. Kind of test: multi-point inoculation onto Columbia agar plates. As to conditions: substrate 300 mg/L, FAC 500 mg/L, 18 h at 37° C. in air. As for the experimental part:
as §1

In test [20] the test system is Yersinia enterocolitica NCTC 11176. Nature of the test: multi-point inoculation onto Columbia agar plates. The note with it: substrate 300 mg/L, FAC 500 mg/L, 18 h at 37° C. in air. As for the experimental part:
as §1

Test [21] relates to E. faecium NCTC 7171. Nature of the test: screen of strains in broth medium containing FAC. Also on record: key: Red, Green, Black or Purple mean strong colour; Red, Green, Black or Purple mean strong colour; Red, Green, Black or Purple mean strong colour; Red, Green, Black or Purple mean strong colour; +/− means less colour than strong; Tr means a trace of colour, less than +/−; — means no colour. As to conditions: 37° C. 18 hours.

The subject of test [22] is E. faecium NCTC 7171. Nature of the test: screen of strains on agar plates (CPS ID 3 or Columbia agar). Set-up: key: Red, Green, Black or Purple mean strong colour; Red, Green, Black or Purple mean strong colour; Red, Green, Black or Purple mean strong colour; Red, Green, Black or Purple mean strong colour; +/− means less colour than strong; Tr means a trace of colour, less than +/−; — means no colour. As to conditions: 37° C. 18 hours.

Structures are written as SMILES. Structures can show the parent of a compound that is named as a salt.

As for `O=C(O)C1OC(Oc2ccccc2O)C(O)C(O)C1O` [Compound 1, Catechol β-D-Glucuronide CHA Salt], the colour entry in test [1], in test [2], in [3], in [4], in [5] and in test [6] was “−” throughout. The colour result in test [7] is on record as “−”; in [8], “−”; in test [9], “++”; in test [10], “−”; in [11] it was “−”; in test [12], “−”. For the same molecule, the colour result in test [13], in [14], in [15], in [16], in test [17] and in test [18] was “−” throughout. The colour entry in test [19] is on record as “−”; in [20], “−”; with E. faecium NCTC 7171 [21] it was “—”.
`O=C(O)[C@H]1O[C@@H](Oc2c[nH]c3cc(Cl)ccc23)[C@H](O)[C@@H](O)[C@@H]1O` [Rose-β-D-glucuronide CHA salt, 6-chloro-3-indolyl β-D-glucuronide]: the colour entry in the test on E. faecium NCTC 7171 [22] is “—”.
With `O=C(O)C1OC(Oc2cc3ccccc3cc2O)C(O)C(O)C1O` [Compound 2b, DHN-β-D-Glucuronide CHA Salt], the colour result in test [1], in test [2], in test [3], in test [4], in test [5] and in test [6] was “−” each time. The colour entry in test [7] is “−”; in test [8], “−”; in test [9], “++”; in test [10], “−”; in test [11], “−”; in [12], “−”. For the same molecule, the colour entry in test [13], in [14], in [15], in test [16], in [17] and in [18] was “−” throughout. In addition, the colour entry in test [19] is recorded as “−”; in test [20] it was “−”; with E. faecium NCTC 7171 [21] it was “—”.
Take `O=C(O)[C@H]1O[C@@H](Oc2c[nH]c3ccc(Br)c(Cl)c23)[C@H](O)[C@@H](O)[C@@H]1O` [X-β-D-glucuronide CHA salt, 5-bromo-4-chloro-3-indolyl β-D-glucuronide]: the colour result in the test on E. faecium NCTC 7171 [22] is reported as “—”.
